In experiment [1] the target is T1, MAGL (Mus musculus (Mouse), UniProt O35678). The experiment is described as follows: Mouse brain proteomes from inhibitor treated mice (oral gavage, sacrificed 4 h after administration). The experiment is classed as in vivo. To be noted: 5 mg/kg oral gavage. How it is done:
(§1) Preparation of Mouse Brain Proteomes from Inhibitor Treated Mice.
(§2) Inhibitors were administered to wild-type C57B1/6J by oral gavage in a vehicle of polyethylene glycol. Each animal was sacrificed 4 h following administration and brain proteomes were prepared and analyzed according to previously established methods (See Niphakis, M. J., et al. (2011) ACS Chem. Neurosci. and Long, J. Z., et al. Nat. Chem. Biol. 5:37-44).

Experiment [2] deals with T2, FAAH (Mus musculus (Mouse), UniProt O08914). The experiment is described as above. The experiment is classed as in vivo. To be noted: 5 mg/kg oral gavage. The protocol: as §1, §2
T2 sequence (O08914 whole entry): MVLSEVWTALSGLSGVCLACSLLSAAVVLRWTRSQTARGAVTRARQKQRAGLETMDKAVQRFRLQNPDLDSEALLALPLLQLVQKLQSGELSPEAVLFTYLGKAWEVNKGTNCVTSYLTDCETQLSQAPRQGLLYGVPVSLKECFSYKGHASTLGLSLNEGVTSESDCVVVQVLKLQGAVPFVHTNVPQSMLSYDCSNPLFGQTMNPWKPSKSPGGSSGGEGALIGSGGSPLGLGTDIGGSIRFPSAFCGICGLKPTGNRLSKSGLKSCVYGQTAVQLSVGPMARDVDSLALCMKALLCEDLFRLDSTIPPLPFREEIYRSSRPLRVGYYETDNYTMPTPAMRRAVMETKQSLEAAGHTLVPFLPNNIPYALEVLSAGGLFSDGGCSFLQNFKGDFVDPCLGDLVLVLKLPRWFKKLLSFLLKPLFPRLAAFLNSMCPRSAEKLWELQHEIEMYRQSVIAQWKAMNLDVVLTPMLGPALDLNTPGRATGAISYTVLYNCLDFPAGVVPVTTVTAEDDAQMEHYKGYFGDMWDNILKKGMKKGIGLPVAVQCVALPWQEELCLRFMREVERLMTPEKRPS
Experiment [3] deals with T1, MAGL. The experiment is described as follows: In vitro competitive activity-based protein profiling, mouse proteomes (brain membrane fraction or cell lysates). Format: biochemical. Conditions: mouse proteome, read-out: MAGL % inh. 1 μM (mouse). In a few lines: (§3)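 Activity of MAGL and FAAH was quantified from fluorescent gel band intensities. Beforehand, inhibitors at several concentrations competed against subsequent probe labelling (FP-Rh, JW912 or HT-01) in species-matched proteomes, each step 30 min at 37° C.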

Experiment [4] has as its target T2, FAAH. The experiment is described as above. The experiment is classed as biochemical. Conditions: mouse proteome, read-out: FAAH % inh. 1 μM (mouse). The essentials: as §3
Experiment [5] addresses MAGL (Homo sapiens (Human), UniProt Q99685). The experiment in a line: In vitro competitive activity-based protein profiling, human proteomes (prefrontal cortex or PC3 cell membrane fractions). The experiment is classed as biochemical. To be noted: human proteome; for inhibition at 1 µM: read-out: MAGL % inh. 1 μM (human). In a few lines: as §3
The target of experiment [6] is FAAH (Homo sapiens (Human), UniProt O00519). The experiment is described as above. The experiment is classed as biochemical. Conditions: human proteome; for inhibition at 1 µM: read-out: FAAH % inh. 1 μM (human). The essentials:
as §3

SMILES strings stand for the structures. A value given as a limit tells only on which side of the number the result lay.

One may read the IC50 as the concentration needed to halve the response being measured. A high value points to a need for much substance.

T1 sequence (O35678 whole entry): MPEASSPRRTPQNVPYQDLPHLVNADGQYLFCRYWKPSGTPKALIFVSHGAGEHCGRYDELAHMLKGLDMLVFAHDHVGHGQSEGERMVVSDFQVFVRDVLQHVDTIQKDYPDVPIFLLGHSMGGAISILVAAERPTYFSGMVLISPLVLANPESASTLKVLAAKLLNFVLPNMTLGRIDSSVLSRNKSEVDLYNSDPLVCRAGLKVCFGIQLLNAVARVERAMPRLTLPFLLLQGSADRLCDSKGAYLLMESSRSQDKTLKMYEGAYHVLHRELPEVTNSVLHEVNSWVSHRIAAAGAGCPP
Chain of FAAH (Homo sapiens (Human), UniProt O00519) (O00519 whole entry): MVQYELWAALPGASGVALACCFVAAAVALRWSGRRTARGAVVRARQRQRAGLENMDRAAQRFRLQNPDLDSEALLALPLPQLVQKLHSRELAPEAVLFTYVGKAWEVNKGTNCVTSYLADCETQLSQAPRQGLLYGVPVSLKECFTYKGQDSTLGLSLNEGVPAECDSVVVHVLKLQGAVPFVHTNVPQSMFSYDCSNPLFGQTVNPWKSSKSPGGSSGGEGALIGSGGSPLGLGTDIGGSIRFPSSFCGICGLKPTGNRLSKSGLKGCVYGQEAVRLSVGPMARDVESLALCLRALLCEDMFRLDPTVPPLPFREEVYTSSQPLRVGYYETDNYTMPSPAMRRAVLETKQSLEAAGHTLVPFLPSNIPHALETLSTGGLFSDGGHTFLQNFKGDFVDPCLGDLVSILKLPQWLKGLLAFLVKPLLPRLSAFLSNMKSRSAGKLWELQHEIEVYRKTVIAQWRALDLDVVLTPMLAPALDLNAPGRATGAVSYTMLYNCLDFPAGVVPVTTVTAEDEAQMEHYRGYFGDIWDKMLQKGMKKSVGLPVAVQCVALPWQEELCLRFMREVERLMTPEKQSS
Chain of MAGL (Homo sapiens (Human), UniProt Q99685) (Q99685 whole entry): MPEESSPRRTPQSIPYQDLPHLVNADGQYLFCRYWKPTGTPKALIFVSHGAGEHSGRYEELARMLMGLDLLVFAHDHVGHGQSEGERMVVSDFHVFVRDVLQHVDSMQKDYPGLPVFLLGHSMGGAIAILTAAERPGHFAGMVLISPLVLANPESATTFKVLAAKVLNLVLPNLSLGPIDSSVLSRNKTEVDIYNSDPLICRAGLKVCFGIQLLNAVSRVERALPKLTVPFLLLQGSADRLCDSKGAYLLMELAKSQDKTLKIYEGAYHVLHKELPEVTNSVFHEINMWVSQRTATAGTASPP

Regarding `CC(=O)Nc1ccn(C(=O)N2CCC3(CCN(C(=O)c4cc5ccc(C(F)(F)F)cc5s4)C3)CC2)n1` [Example 154, N-(1-(2-(6-(Trifluoromethyl)benzo[b]thiophene-2-carbonyl)-2,8-diazaspiro[4.5]decane-8-carbonyl)-1H-pyrazol-3-yl)acetamide], the “MAGL % inh. 5 mg/kg (mouse)” value at MAGL [1] is “B (% inhibition is greater than or equal to 50% and less than 75%)”. Also, the “FAAH % inh. 5 mg/kg (mouse)” value at FAAH [2] is “C (% inhibition is greater than or equal to 25% and less than 50%)”. Besides, the inhibition at 1 µM at MAGL [3] is above 75%; at FAAH [4], above 75%; at MAGL [5] it was above 75%; on FAAH [6], 25 to 50%. In addition, the 50% inhibitory concentration (IC50) on MAGL [5] is below 0.1 µM; on FAAH [6], 1 to 10 µM.

For the compound `C[C@@H]1CCCN1c1cc(CN2CCN(C(=O)n3ccc(NS(C)(=O)=O)n3)CC2)ccc1C(F)(F)F` [Example 156, (R)-N-(1-(4-(3-(2-Methylpyrrolidin-1-yl)-4-(trifluoromethyl)benzyl)piperazine-1-carbonyl)-1H-pyrazol-3-yl)methanesulfonamide], the “MAGL % inh. 5 mg/kg (mouse)” value on MAGL [1] is “A (% inhibition is greater than or equal to 75%)”. For the same compound, the “FAAH % inh. 5 mg/kg (mouse)” value at FAAH [2] was “D (% inhibition is greater than or equal to 0% and less than 25%)”. The inhibition at 1 µM at MAGL [3] is above 75%; on FAAH [4], 0 to 25%; on MAGL [5] it was above 75%; on FAAH [6], 0 to 25%.

In the case of `CS(=O)(=O)Nc1ccn(C(=O)N2CCN(Cc3ccc(Cl)c(N4C[C@H]5C[C@@H]4CO5)c3)CC2)n1` [Example 157, N-(1-(4-(3-((1R,4R)-2-Oxa-5-azabicyclo[2.2.1]heptan-5-yl)-4-chlorobenzyl)piperazine-1-carbonyl)-1H-pyrazol-3-yl)methanesulfonamide], the “MAGL % inh. 5 mg/kg (mouse)” value on MAGL [1] is “D (% inhibition is greater than or equal to 0% and less than 25%)”. Besides, the “FAAH % inh. 5 mg/kg (mouse)” value on FAAH [2] was “D (% inhibition is greater than or equal to 0% and less than 25%)”. Also, the inhibition at 1 µM is above 75% at MAGL [3], 0 to 25% on FAAH [4], above 75% on MAGL [5] and 0 to 25% on FAAH [6].

On to `CS(=O)(=O)Nc1ccn(C(=O)N2CCN(Cc3ccc(Cl)c(N4CCO[C@@H]5CCC[C@@H]54)c3)CC2)n1` [Example 158, N-(1-(4-(4-Chloro-3-((4aS,7aR)-hexahydrocyclopenta[b][1,4]oxazin-4(4aH)-yl)benzyl)piperazine-1-carbonyl)-1H-pyrazol-3-yl)methanesulfonamide], for which, at MAGL [1], the “MAGL % inh. 5 mg/kg (mouse)” value was “D (% inhibition is greater than or equal to 0% and less than 25%)”. Besides, the “FAAH % inh. 5 mg/kg (mouse)” value at FAAH [2] is “D (% inhibition is greater than or equal to 0% and less than 25%)”. In addition, the inhibition at 1 µM on MAGL [3] was above 75%; on FAAH [4], 0 to 25%; at MAGL [5], above 75%; at FAAH [6], 0 to 25%.

Take `CS(=O)(=O)Nc1ccn(C(=O)N2CCN(Cc3ccc(Cl)c(N4CCC5(CCOCC5)C4)c3)CC2)n1` [Example 159, N-(1-(4-(4-Chloro-3-(8-oxa-2-azaspiro[4.5]decan-2-yl)benzyl)piperazine-1-carbonyl)-1H-pyrazol-3-yl)methanesulfonamide]: the “MAGL % inh. 5 mg/kg (mouse)” value on MAGL [1] was “D (% inhibition is greater than or equal to 0% and less than 25%)”. Besides, the “FAAH % inh. 5 mg/kg (mouse)” value on FAAH [2] is “D (% inhibition is greater than or equal to 0% and less than 25%)”. For the same compound, the inhibition at 1 µM was above 75% at MAGL [3], 0 to 25% on FAAH [4], above 75% at MAGL [5] and 0 to 25% at FAAH [6].

On to `CC(=O)Nc1ccn(C(=O)N2CC3CN(Cc4cc(N5CCCC5)cc(C(F)(F)F)c4)CC3C2)n1` (centres unmarked) [Example 168, N-(1-(5-(3-(Pyrrolidin-1-yl)-5-(trifluoromethyl)benzyl)octahydropyrrolo[3,4-c]pyrrole-2-carbonyl)-1H-pyrazol-3-yl)acetamide], for which, on MAGL [1], the “MAGL % inh. 5 mg/kg (mouse)” value is “A (% inhibition is greater than or equal to 75%)”. Besides, the “FAAH % inh. 5 mg/kg (mouse)” value at FAAH [2] is listed as “A (% inhibition is greater than or equal to 75%)”. In addition, the inhibition at 1 µM on MAGL [3] is above 75%; at FAAH [4], above 75%; at MAGL [5], above 75%; at FAAH [6], 50 to 75%.

Take `CC(=O)Nc1ccn(C(=O)N2CC3CN(Cc4ccc(N5CCCC5)cc4Cl)CC3C2)n1` (centres unmarked) [Example 169, N-(1-(5-(2-Chloro-4-(pyrrolidin-1-yl)benzyl)octahydropyrrolo[3,4-c]pyrrole-2-carbonyl)-1H-pyrazol-3-yl)acetamide]: the “MAGL % inh. 5 mg/kg (mouse)” value on MAGL [1] was “B (% inhibition is greater than or equal to 50% and less than 75%)”. Moreover, the “FAAH % inh. 5 mg/kg (mouse)” value on FAAH [2] was “B (% inhibition is greater than or equal to 50% and less than 75%)”. Moreover, the inhibition at 1 µM was above 75% at MAGL [3], above 75% on FAAH [4], above 75% on MAGL [5] and 50 to 75% at FAAH [6].

The values above are taken from patent US11149037B2, “Pyrazole MAGL inhibitors” (H. Lundbeck A/S, priority 2017, dated 2021).
